Laboratory results from patent US20220402916A1, “SMALL MOLECULE INHIBITORS OF KRAS G12C MUTANT” (Merck Sharp & Dohme Corp., priority 2019, published 2022).
Read-outs that look alike come from different tables or passages of the source.

Tests used:
[1] = molecular target: T1, Biotinylated KRAS G12C protein (Homo sapiens, UniProt P01116, C118S/C51S/C80L/G12C); experiment: SOS-catalyzed nucleotide exchange assay; assay type: biochemical; conditions: apparent potency; preincubation time of 60 minutes prior to addition of SOS
T1 construct: 183 amino acids; biotin on K10

[2] = system: NCI-H358 cells; experiment: Cellular phospho-ERK assay; assay type: cell-based; conditions: NCI-H358 cells, 2 hour incubation, ratio of p-Erk vs total Erk, read-out: IC50
Protocol: NCI-H358 cells (ATCC® CRL-5807™) were cultured in T150 flask in growth medium (RPMI medium 1640-GlutaMAX™-1 (ThermoFisher Scientific 61870) containing 10% fetal bovine serum (ThermoFisher Scientific 10091148)). The cells were harvested in growth medium after TrypLE (ThermoFisher scientific 12604021) digestion and were seeded in 384-well collagen coated cell culture plate (Corning 356702) at a density of 15,000 cells/well, and incubated at 37° C., 5% CO2 overnight. The compound dose-response titrations were prepared and appropriate amounts of compounds were dispensed in 384-well intermediate plate using Echo 550 liquid handler. RPMI medium 1640-GlutaMAX™-I were added to the intermediate plate and transferred to 384-well cell culture plate, which was incubated at 37° C., 5% CO2 for 2 hours. After removal of medium from the plate, cells were lysed in lysis buffer from Alpha SureFire® Ultra™ Multiplex p-Erk and total Erk assay kit (PerkinElmer MPSU-PTERK) containing Halt™ Protease and Phosphotase inhibitor cocktail (ThermoFisher Scientific 78446) at room temperature with constant shaking at 300 rpm for 30 minutes. The cell lysates were then transferred to OptiPlate-384 plate (PerkinElmer 6005620) and the phosphorylation of Erk and total Erk levels were detected by Alpha SureFire Ultra Multiplex p-Erk kit (PerkinElmer MPSU-PTERK) following the manufacturer's protocol. Assay plates were read on an EnVision Multimode Plate Reader (PerkinElmer) and the ratio of p-Erk vs total Erk in each well was used as the final readout. Dose response curves were analyzed using a 4-parameter logistic model to calculate IC50 values using spotfire software.

T1 sequence (P01116 with tags, fused parts or gaps isoform P01116-2 G12C/C51S/C80L/C118S): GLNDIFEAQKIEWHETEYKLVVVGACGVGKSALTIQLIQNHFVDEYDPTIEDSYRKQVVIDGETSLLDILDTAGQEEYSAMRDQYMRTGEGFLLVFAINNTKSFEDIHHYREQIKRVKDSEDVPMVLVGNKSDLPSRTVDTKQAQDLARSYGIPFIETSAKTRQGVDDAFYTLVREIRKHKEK

Row | Compound | IC50 [1] [nM] | IC50 ([2]; Homo sapiens, NCI-H358, 2 h) [nM] | IC50 [2] [nM]
1 | C=CC(=O)N1CCN(c2cc(C(=O)Nc3ccccc3N3CCNCC3)nc3c2CCN(c2cccc4cccc(C)c24)C3)C[C@@H]1CC#N [Compound 93, (S)-4-(4-acryloyl-3-(cyanomethyl)piperazin-1-yl)-7-(8-methylnaphthalen-1-yl)-N-(2-(piperazin-1-yl)phenyl)-5,6,7,8-tetrahydro-1,7-naphthyridine-2-carboxamide] | 1840 | 24400 | –
2 | C=CC(=O)N1CCN(c2cc(C(=O)NC(C)CN3CCC(C)(O)C3)nc3c2CCN(c2cccc4cccc(C)c24)C3)C[C@@H]1CC#N (single isomer, unassigned) [Compound 73, 4-((S)-4-acryloyl-3-(cyanomethyl)piperazin-1-yl)-N—((R or S)-1-((R or S)-3-hydroxy-3-methylpyrrolidin-1-yl)propan-2-yl)-7-(8-methylnaphthalen-1-yl)-5,6,7,8-tetrahydro-1,7-naphthyridine-2-carboxamide] | 9.7 | – | 257
3 | C=CC(=O)N1CCN(c2cc(C(=O)Nc3ccccc3CN)nc3c2CCN(c2cccc4cccc(C)c24)C3)C[C@@H]1CC#N [Compound 94, (S)-4-(4-acryloyl-3-(cyanomethyl)piperazin-1-yl)-N-(2-(aminomethyl)phenyl)-7-(8-methylnaphthalen-1-yl)-5,6,7,8-tetrahydro-1,7-naphthyridine-2-carboxamide] | 12 | 6630 | –
4 | C=CC(=O)N1CCN(c2cc(C(=O)N[C@H]3CC[C@@H](NC)CC3)nc3c2CCN(c2cccc4cccc(C)c24)C3)C[C@@H]1CC#N [Compound 96, 4-((S)-4-acryloyl-3-(cyanomethyl)piperazin-1-yl)-N-(cis-4-(methylamino)cyclohexyl)-7-(8-methylnaphthalen-1-yl)-5,6,7,8-tetrahydro-1,7-naphthyridine-2-carboxamide] | 56 | 5470 | –
5 | C=CC(=O)N1CCN(c2cc(C(=O)N[C@H](C)CN3CC(C)(O)C3)nc3c2CCN(c2cccc4cccc(C)c24)C3)C[C@@H]1CC#N [Compound 70, 4-((S)-4-acryloyl-3-(cyanomethyl)piperazin-1-yl)-N-((R)-1-(3-hydroxy-3-methylazetidin-1-yl)propan-2-yl)-7-(8-methylnaphthalen-1-yl)-5,6,7,8-tetrahydro-1,7-naphthyridine-2-carboxamide] | 2.2 | 57 | –
6 | C=CC(=O)N1CCN(c2cc(C(=O)NC(C)CN3CCC(F)(F)C3)nc3c2CCN(c2cccc4cccc(C)c24)C3)C[C@@H]1CC#N (single isomer, unassigned) [Compound 72, 4-((S)-4-acryloyl-3-(cyanomethyl)piperazin-1-yl)-N—((S or R)-1-(3,3-difluoropyrrolidin-1-yl)propan-2-yl)-7-(8-methylnaphthalen-1-yl)-5,6,7,8-tetrahydro-1,7-naphthyridine-2-carboxamide] | 529 | – | 25400
7 | C=C(F)C(=O)N1CCN(c2cc(C(=O)N[C@H](C)CN(C)C(C)C)nc3c2CCN(c2cccc4cccc(C)c24)C3)C[C@@H]1CC#N [Compound 79, 4-((S)-3-(cyanomethyl)-4-(2-fluoroacryloyl)piperazin-1-yl)-N-((R)-1-(isopropyl(methyl)amino)propan-2-yl)-7-(8-methylnaphthalen-1-yl)-5,6,7,8-tetrahydro-1,7-naphthyridine-2-carboxamide] | 12 | 1280 | –
8 | C=CC(=O)N1CCN(c2cc(C(=O)N[C@H]3CNCC[C@H]3F)nc3c2CCN(c2cccc4cccc(C)c24)C3)C[C@@H]1CC#N [Compound 103, 4-((S)-4-acryloyl-3-(cyanomethyl)piperazin-1-yl)-N-((3S,4R)-4-fluoropiperidin-3-yl)-7-(8-methylnaphthalen-1-yl)-5,6,7,8-tetrahydro-1,7-naphthyridine-2-carboxamide] | 26 | 14900 | –
9 | C=CC(=O)N1CCN(c2cc(C(=O)NC[C@H]3CC(F)(F)CN3)nc3c2CCN(c2cccc4cccc(C)c24)C3)C[C@@H]1CC#N [Compound 81, 4-((S)-4-acryloyl-3-(cyanomethyl)piperazin-1-yl)-N-(((R)-4,4-difluoropyrrolidin-2-yl)methyl)-7-(8-methylnaphthalen-1-yl)-5,6,7,8-tetrahydro-1,7-naphthyridine-2-carboxamide] | 29 | 2970 | –
10 | C=CC(=O)N1CCN(c2cc(C(=O)NCCC3CCCCN3)nc3c2CCN(c2cccc4cccc(C)c24)C3)C[C@@H]1CC#N (mixture of isomers) [Compound 105, 4-((S)-4-acryloyl-3-(cyanomethyl)piperazin-1-yl)-7-(8-methylnaphthalen-1-yl)-N-(2-((R)-piperidin-2-yl)ethyl)-5,6,7,8-tetrahydro-1,7-naphthyridine-2-carboxamide, as a mixture with 4-((S)-4-acryloyl-3-(cyanomethyl)piperazin-1-yl)-7-(8-methylnaphthalen-1-yl)-N-(2-((S)-piperidin-2-yl)ethyl)-5,6,7,8-tetrahydro-1,7-naphthyridine-2-carboxamide] | 17 | 4890 | –
11 | C=CC(=O)N1CCN(c2cc(C(=O)NC[C@@H]3CCCN3)nc3c2CCN(c2cccc4cccc(C)c24)C3)C[C@@H]1CC#N [Compound 97, 4-((S)-4-acryloyl-3-(cyanomethyl)piperazin-1-yl)-7-(8-methylnaphthalen-1-yl)-N-(((S)-pyrrolidin-2-yl)methyl)-5,6,7,8-tetrahydro-1,7-naphthyridine-2-carboxamide] | 15 | 2480 | –
12 | C=CC(=O)N1CCN(c2cc(C(=O)NC(C)CN3CCC(C)(O)C3)nc3c2CCN(c2cccc4cccc(C)c24)C3)C[C@@H]1CC#N (single isomer, unassigned) [Compound 74, 4-((S)-4-acryloyl-3-(cyanomethyl)piperazin-1-yl)-N-((S or R)-1-((R or S)-3-hydroxy-3-methylpyrrolidin-1-yl)propan-2-yl)-7-(8-methylnaphthalen-1-yl)-5,6,7,8-tetrahydro-1,7-naphthyridine-2-carboxamide] | 5.4 | – | 45
13 | C=CC(=O)N1CCN(c2cc(C(=O)NC(C)CN3CCC(C)(O)C3)nc3c2CCN(c2cccc4cccc(C)c24)C3)C[C@@H]1CC#N (single isomer, unassigned) [Compound 76, 4-((S)-4-acryloyl-3-(cyanomethyl)piperazin-1-yl)-N-((S or R)-1-((S or R)-3-hydroxy-3-methylpyrrolidin-1-yl)propan-2-yl)-7-(8-methylnaphthalen-1-yl)-5,6,7,8-tetrahydro-1,7-naphthyridine-2-carboxamide] | 6.2 | – | 207
14 | C=CC(=O)N1CCN(c2cc(C(=O)NC3(C)CCCNC3)nc3c2CCN(c2cccc4cccc(C)c24)C3)C[C@@H]1CC#N (mixture of isomers) [Compound 102, 4-((S)-4-acryloyl-3-(cyanomethyl)piperazin-1-yl)-7-(8-methylnaphthalen-1-yl)-N-((R)-3-methylpiperidin-3-yl)-5,6,7,8-tetrahydro-1,7-naphthyridine-2-carboxamide, as a mixture with 4-((S)-4-acryloyl-3-(cyanomethyl)piperazin-1-yl)-7-(8-methylnaphthalen-1-yl)-N-((S)-3-methylpiperidin-3-yl)-5,6,7,8-tetrahydro-1,7-naphthyridine-2-carboxamide] | 5.4 | 809 | –
15 | C=CC(=O)N1CCN(c2cc(C(=O)NC3(CN)CC3)nc3c2CCN(c2cccc4cccc(C)c24)C3)C[C@@H]1CC#N [Compound 88, (S)-4-(4-acryloyl-3-(cyanomethyl)piperazin-1-yl)-N-(1-(aminomethyl)cyclopropyl)-7-(8-methylnaphthalen-1-yl)-5,6,7,8-tetrahydro-1,7-naphthyridine-2-carboxamide] | 4.3 | 1000 | –
16 | C=C(F)C(=O)N1CCN(c2cc(C(=O)NC(C)CN3CCC(C)(O)C3)nc3c2CCN(c2cccc4cccc(C)c24)C3)C[C@@H]1CC#N (single isomer, unassigned) [Compound 77, 4-((S)-3-(cyanomethyl)-4-(2-fluoroacryloyl)piperazin-1-yl)-N—((R or S)-1-((S or R)-3-hydroxy-3-methylpyrrolidin-1-yl)propan-2-yl)-7-(8-methylnaphthalen-1-yl)-5,6,7,8-tetrahydro-1,7-naphthyridine-2-carboxamide] | 5 | 611 | –
17 | C=CC(=O)N1CCN(c2cc(C(=O)NC3(CC#N)CNC3)nc3c2CCN(c2cccc4cccc(C)c24)C3)C[C@@H]1CC#N [Compound 100, (S)-4-(4-acryloyl-3-(cyanomethyl)piperazin-1-yl)-N-(3-(cyanomethyl)azetidin-3-yl)-7-(8-methylnaphthalen-1-yl)-5,6,7,8-tetrahydro-1,7-naphthyridine-2-carboxamide] | 22 | 5880 | –
